Test results published in patent publication US20100285145A1, “GPR 119 MODULATORS” (PFIZER INC, priority 2009, published 2010).

System: male Wistar rats
Test: Oral glucose tolerance test (OGTT)
Format: in vivo
Conditions: rat; for Glucose 0-120 min AUC (percent vehicle response): 30 min before glucose 2 g/kg
From the text: All in vivo protocols were approved by the Pfizer's Animal Welfare Committee. Naive male Wistar rats (225-250 g body weight on receipt) were obtained from Harlan Laboratories (Indianapolis, Ind.), were pair housed in hanging plastic caging on Sani-chips sawdust bedding, and fed ad libitum on Purina 5001 chow. The rats were housed under a controlled light cycle (light from 6 am to 6 pm) at controlled temperature and humidity conditions. Rats were acclimated to the facility for at least 1 week prior to study.
Example 17 was formulated in 0.5% methylcellulose. The highest dose (30 mg/kg) was formulated at 6 mg/mL for administration at 5 mL/kg, the required bulk was added to a mortar and ground with a small amount of 0.5% methylcellulose to a smooth paste with a pestle, additional 0.5% methylcellulose was added until the mixture flowed, when it was transferred to a stirred container, the mortar was rinsed several times with remaining quantity of 0.5% methylcellulose and capped to prevent evaporation. The suspension was stirred continuously overnight with a magnetic stir bar prior to study, and the lower doses were diluted from the 6 mg/mL suspension using the appropriate volume of 0.5% methylcellulose. All dosing suspensions were stirred throughout the dosing procedure.
Rats were stratified (n=8/group) to vehicle (0.5% methylcellulose) or one of three dose groups (1, 5, or 30 mg/kg) according to body weight on day-1 to ensure that each group had equal group mean body weight values. The rats were fasted overnight in clean cages overnight (˜15 hours) prior to the oral glucose tolerance test. Body weights were recorded on the morning of the study (post fasting) for dose volume calculation. Blood samples were collected from all rats prior to dosing with vehicle or test compound via oral gavage (5 mL/kg). Thirty minutes later rats were bled and immediately dose with an oral dose of glucose (2 g/kg). The rats were re-bled at 15, 30, 60 and 120 minutes post-glucose load. Blood samples (˜250 μL/time point) were collected into EDTA tubes with aprotinin/DPPIVi (0.6 TIU/2 μL per mL whole blood). Blood tubes were inverted several times immediately following collection and placed on ice, then spun at 14,000 rpm in a refrigerated centrifuge for 5 minutes. Plasma samples were analyzed for glucose levels using a Roche 912 clinical chemistry analyzer, plasma insulin concentrations were determined using the Alpco Ultra-Sensitive Insulin Rat ELISA, and total amide GLP-1 concentrations were determined using MSD ELISA kit.
The results are presented as mean+/−SEM (standard error of the mean) unless otherwise stated. Statistical evaluation of the data is carried out using one-way analysis of variance (ANOVA) with appropriate post-hoc analysis between vehicle and treatment group. Differences compared to vehicle with a p>0.05 were considered statistically significant using Dunnett's T-test.

Cc1c(O[C@H]2CCN(C(=O)OC3(C)CC3)C[C@H]2F)ncnc1N1CCc2ncccc21 [Example 17, 1-Methylcyclopropyl (3R,4S)-4-{[6-(2,3-dihydro-1H-pyrrolo[3,2-b]pyridin-1-yl)-5-methylpyrimidin-4-yl]oxy}-3-fluoropiperidine-1-carboxylate]
Insulin 0-60 min AUC (percent vehicle response) (1 mg/kg oral): 90 percent vehicle response
Total Amide GLP-1 0-120 min AUC (percent vehicle response) (1 mg/kg oral): 147 percent vehicle response
Glucose 0-120 min AUC (percent vehicle response) (1 mg/kg oral): 102 percent vehicle response
Insulin 0-60 min AUC (percent vehicle response) (5 mg/kg oral): 142 percent vehicle response
Total Amide GLP-1 0-120 min AUC (percent vehicle response) (5 mg/kg oral): +184 percent vehicle response
Glucose 0-120 min AUC (percent vehicle response) (5 mg/kg oral): 95 percent vehicle response
Insulin 0-60 min AUC (percent vehicle response) (30 mg/kg oral): 112 percent vehicle response
Total Amide GLP-1 0-120 min AUC (percent vehicle response) (30 mg/kg oral): 150 percent vehicle response
Glucose 0-120 min AUC (percent vehicle response) (30 mg/kg oral): ++90 percent vehicle response
